In ChEMBL document CHEMBL1909046, “DrugMatrix in vitro pharmacology data”:

Legend:
[1] = target: 5-hydroxytryptamine receptor 4 (Cavia porcellus, UniProt O70528); format: cell membranes, Dunkin-Hartley, Striatum, Membrane; also: in other assays of this panel Not Active means under 50% inhibition at 10 µM
[2] = target: T1, Alpha-1A adrenergic receptor (Rattus norvegicus, UniProt P43140); assay: DRUGMATRIX: Alpha-1A adrenergic receptor radioligand binding (ligand: prazosin); format: cell membranes, Wistar, Submaxillary gland, Membrane; details: Not Active = under 50% inhibition at 10 µM
T1 sequence (P43140 whole entry): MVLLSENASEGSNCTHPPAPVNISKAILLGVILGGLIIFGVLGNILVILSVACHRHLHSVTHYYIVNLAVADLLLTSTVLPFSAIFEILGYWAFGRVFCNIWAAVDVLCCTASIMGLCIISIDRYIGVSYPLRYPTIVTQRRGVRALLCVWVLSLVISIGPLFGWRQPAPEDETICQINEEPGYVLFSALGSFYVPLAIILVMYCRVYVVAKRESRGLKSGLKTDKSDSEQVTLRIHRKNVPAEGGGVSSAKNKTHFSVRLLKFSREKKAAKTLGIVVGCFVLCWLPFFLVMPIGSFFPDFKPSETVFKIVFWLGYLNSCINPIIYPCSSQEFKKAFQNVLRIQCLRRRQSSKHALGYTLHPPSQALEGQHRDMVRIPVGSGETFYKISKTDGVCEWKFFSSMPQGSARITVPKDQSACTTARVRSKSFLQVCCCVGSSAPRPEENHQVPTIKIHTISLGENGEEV

Adenosine receptor A1 = target: T2, Adenosine receptor A1 (Homo sapiens, UniProt P30542); format: cell membranes, CHO, Membrane;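 also: radioligand binding assay at the adenosine A1 receptor, with DPCPX serving as the labelled ligand; in other assays of this panel Not Active means under 50% inhibition at 10 µM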
T2 sequence (P30542 whole entry): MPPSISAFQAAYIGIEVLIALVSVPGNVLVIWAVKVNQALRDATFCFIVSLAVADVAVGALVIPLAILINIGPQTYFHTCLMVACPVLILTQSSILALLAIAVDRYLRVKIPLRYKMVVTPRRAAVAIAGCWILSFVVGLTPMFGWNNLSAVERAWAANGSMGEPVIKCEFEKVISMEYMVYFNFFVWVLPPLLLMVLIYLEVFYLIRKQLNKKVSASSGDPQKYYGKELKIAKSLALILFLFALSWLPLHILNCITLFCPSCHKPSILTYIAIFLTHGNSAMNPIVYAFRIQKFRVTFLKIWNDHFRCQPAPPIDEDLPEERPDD

Endothelin-1 receptor = target: T3, Endothelin-1 receptor (Homo sapiens, UniProt P25101); format: cell membranes, Membrane; details: cho-k1; also: in other assays of this panel Not Active means under 50% inhibition at 10 µM
T3 sequence (P25101 whole entry): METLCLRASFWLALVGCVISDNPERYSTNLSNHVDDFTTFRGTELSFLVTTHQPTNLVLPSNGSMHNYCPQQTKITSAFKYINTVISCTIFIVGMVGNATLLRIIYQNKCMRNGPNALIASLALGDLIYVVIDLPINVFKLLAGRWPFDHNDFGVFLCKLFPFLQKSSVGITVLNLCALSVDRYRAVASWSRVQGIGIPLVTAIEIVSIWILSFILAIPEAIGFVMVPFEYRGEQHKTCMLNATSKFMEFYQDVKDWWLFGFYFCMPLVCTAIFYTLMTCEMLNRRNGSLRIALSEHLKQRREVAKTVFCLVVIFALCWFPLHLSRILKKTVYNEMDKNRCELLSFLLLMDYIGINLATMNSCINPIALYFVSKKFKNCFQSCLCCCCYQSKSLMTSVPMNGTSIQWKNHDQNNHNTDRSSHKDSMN

[3] = target: T4, C-X-C chemokine receptor type 2 (Homo sapiens, UniProt P25025); format: cell membranes, Membrane; details: cho-k1; also: in other assays of this panel Not Active means under 50% inhibition at 10 µM
T4 sequence (P25025 whole entry): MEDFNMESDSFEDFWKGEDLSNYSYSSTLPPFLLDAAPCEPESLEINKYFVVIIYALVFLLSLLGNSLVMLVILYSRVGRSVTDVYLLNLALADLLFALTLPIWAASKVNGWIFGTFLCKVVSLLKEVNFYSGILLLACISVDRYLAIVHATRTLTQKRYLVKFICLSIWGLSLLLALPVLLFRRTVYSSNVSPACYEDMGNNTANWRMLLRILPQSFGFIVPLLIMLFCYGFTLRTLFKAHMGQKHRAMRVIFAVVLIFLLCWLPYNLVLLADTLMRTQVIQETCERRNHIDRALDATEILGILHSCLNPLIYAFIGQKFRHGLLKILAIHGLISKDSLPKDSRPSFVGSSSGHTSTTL

[4] = target: 5-hydroxytryptamine receptor 2B (Homo sapiens, UniProt P41595); format: cell membranes, CHO-K1, Membrane; also: in other assays of this panel Not Active means under 50% inhibition at 10 µM
Chain of 5-hydroxytryptamine receptor 2B (P41595 whole entry): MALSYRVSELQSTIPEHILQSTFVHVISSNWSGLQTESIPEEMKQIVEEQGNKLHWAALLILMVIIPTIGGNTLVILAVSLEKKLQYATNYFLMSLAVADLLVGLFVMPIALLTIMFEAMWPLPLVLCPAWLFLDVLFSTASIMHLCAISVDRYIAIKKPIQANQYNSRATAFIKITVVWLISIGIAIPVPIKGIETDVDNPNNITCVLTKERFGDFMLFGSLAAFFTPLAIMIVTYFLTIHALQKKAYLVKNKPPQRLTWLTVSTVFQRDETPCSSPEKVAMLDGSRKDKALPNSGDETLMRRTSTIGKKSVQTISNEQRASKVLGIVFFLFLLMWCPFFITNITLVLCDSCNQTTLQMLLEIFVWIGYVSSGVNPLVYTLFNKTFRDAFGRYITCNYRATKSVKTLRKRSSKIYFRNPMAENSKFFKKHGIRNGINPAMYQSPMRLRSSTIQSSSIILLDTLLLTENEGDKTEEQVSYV

Cathepsin G = target: T5, Cathepsin G (Homo sapiens, UniProt P08311); format: tissue-based; details: neutrophil
T5 sequence (P08311 whole entry): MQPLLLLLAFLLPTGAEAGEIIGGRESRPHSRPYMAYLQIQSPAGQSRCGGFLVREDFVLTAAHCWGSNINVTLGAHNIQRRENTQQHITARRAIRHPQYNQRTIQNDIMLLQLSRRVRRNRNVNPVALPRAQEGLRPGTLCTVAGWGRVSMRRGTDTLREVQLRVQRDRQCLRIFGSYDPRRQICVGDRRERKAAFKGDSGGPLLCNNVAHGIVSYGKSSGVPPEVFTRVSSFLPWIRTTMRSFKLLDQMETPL

[5] = target: C-C chemokine receptor type 2 (Homo sapiens, UniProt P41597); format: cell membranes, CHO-K1, Membrane; also: in other assays of this panel Not Active means under 50% inhibition at 10 µM
Chain of C-C chemokine receptor type 2 (P41597 whole entry): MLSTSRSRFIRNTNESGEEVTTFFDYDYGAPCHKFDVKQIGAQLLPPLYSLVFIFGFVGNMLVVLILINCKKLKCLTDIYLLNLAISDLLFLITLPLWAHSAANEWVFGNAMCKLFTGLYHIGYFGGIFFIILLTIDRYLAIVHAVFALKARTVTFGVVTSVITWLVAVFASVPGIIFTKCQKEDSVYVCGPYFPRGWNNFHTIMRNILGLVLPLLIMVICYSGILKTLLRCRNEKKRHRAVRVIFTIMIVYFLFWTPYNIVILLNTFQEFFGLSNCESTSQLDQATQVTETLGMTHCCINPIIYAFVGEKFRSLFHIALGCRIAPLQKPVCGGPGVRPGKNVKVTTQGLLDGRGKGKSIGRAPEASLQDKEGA

[6] = target: T6, Vasoactive intestinal polypeptide receptor 1 (Homo sapiens, UniProt P32241); format: cell membranes, Membrane; details: ht-29; also: in other assays of this panel Not Active means under 50% inhibition at 10 µM
T6 sequence (P32241 whole entry): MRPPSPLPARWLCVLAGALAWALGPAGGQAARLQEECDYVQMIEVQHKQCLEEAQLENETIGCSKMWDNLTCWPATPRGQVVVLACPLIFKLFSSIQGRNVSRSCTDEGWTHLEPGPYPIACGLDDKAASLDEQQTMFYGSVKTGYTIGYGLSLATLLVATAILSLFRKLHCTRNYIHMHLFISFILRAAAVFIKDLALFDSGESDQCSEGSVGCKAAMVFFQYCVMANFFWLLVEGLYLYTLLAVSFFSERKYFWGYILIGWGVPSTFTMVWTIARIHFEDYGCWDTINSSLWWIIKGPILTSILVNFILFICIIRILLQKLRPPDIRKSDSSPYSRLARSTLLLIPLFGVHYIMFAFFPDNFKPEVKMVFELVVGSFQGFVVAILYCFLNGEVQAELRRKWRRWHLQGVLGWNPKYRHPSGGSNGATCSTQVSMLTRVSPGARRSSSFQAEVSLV

Chain of 5-hydroxytryptamine receptor 4 (O70528 whole entry): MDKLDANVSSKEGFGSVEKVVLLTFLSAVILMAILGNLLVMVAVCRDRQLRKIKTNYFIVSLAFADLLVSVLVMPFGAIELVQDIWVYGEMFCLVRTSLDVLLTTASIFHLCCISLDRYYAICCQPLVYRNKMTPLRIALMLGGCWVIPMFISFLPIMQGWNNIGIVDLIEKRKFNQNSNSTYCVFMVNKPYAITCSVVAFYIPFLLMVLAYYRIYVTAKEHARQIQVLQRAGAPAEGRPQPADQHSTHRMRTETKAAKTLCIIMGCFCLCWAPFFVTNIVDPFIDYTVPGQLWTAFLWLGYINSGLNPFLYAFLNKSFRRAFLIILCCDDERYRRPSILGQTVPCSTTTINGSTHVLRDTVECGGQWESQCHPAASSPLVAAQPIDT

Row | Compound | IC50 [1] | IC50 [2] | IC50 (Adenosine receptor A1; cho) | IC50 (Endothelin-1 receptor) | IC50 [3] | IC50 ([4]; cho-k1) | IC50 (Cathepsin G) | IC50 ([5]; cho-k1) | IC50 [6] | other results
1 | CCOC(=O)[C@H](CCc1ccccc1)N[C@@H](C)C(=O)N1[C@H](C(=O)O)C[C@@H]2CCC[C@@H]21 | Not Active | Not Active | Not Active | Not Active | Not Active | Not Active | Not Active | Not Active | Not Active | –
2 | NNC(=O)c1ccncc1 [ISONIAZID] | Not Active | Not Active | Not Active | Not Active | Not Active | Not Active | Not Active | Not Active | Not Active | –
3 | Nc1nnc(-c2cccc(Cl)c2Cl)c(N)n1 [LAMOTRIGINE] | Not Active | Not Active | Not Active | Not Active | Not Active | Not Active | Not Active | Not Active | Not Active | –
4 | C[C@]12Cc3c[nH]nc3C[C@@H]1CC[C@@H]1[C@@H]2CC[C@@]2(C)[C@H]1CC[C@]2(C)O [STANOZOLOL] | Not Active | Not Active | Not Active | Not Active | Not Active | Not Active | Not Active | Not Active | Not Active | –
5 | CC1=C(/C=C/C(C)=C/C=C/C(C)=C\C(=O)O)C(C)(C)CCC1 [ISOTRETINOIN] | Not Active | Not Active | Not Active | Not Active | Not Active | – | Not Active | Not Active | Not Active | IC50 ([4]; read-out: IC50): 848 nM; Ki ([4]; read-out: Ki): 540 nM
6 | NC(CO)(CO)CO [TROMETHAMINE] | Not Active | Not Active | Not Active | Not Active | Not Active | Not Active | Not Active | Not Active | Not Active | –
7 | Cc1ccc(C(=O)C(C)CN2CCCCC2)cc1 (centres undefined) [TOLPERISONE] | Not Active | Not Active | Not Active | Not Active | Not Active | Not Active | Not Active | Not Active | Not Active | –
8 | CN(N=O)C(=O)N[C@@H](C=O)[C@@H](O)[C@H](O)[C@H](O)CO [STREPTOZOCIN] | Not Active | Not Active | Not Active | Not Active | Not Active | Not Active | Not Active | Not Active | Not Active | –
9 | NC(=O)c1ncn([C@@H]2O[C@H](CO)[C@@H](O)[C@H]2O)n1 [RIBAVIRIN] | Not Active | Not Active | Not Active | Not Active | Not Active | Not Active | Not Active | Not Active | Not Active | –
10 | Oc1c(I)cc(I)c2cccnc12 [IODOQUINOL] | Not Active | Not Active | Not Active | Not Active | Not Active | Not Active | Not Active | Not Active | Not Active | –
11 | CN1[C@@H]2CC[C@H]1C[C@@H](OC(=O)c1c[nH]c3ccccc13)C2 [TROPISETRON] | – | Not Active | Not Active | Not Active | Not Active | Not Active | Not Active | Not Active | Not Active | IC50 ([1]; read-out: IC50): 324 nM; Ki ([1]; read-out: Ki): 54 nM
12 | NC(=O)c1ccccc1O [SALICYLAMIDE] | Not Active | Not Active | Not Active | Not Active | Not Active | Not Active | Not Active | Not Active | Not Active | –
13 | COC(=O)C1=C(C)NC(C)=C(C(=O)OC)C1c1ccccc1[N+](=O)[O-] [NIFEDIPINE] | Not Active | Not Active | – | Not Active | Not Active | Not Active | Not Active | – | Not Active | IC50 (Adenosine receptor A1; read-out: IC50): 7700 nM; Ki (Adenosine receptor A1; read-out: Ki): 4490 nM; IC50 ([5]; read-out: IC50): 2190 nM; Ki ([5]; read-out: Ki): 847 nM
14 | O=[N+]([O-])c1cc([As](=O)(O)O)ccc1O [ROXARSONE] | Not Active | Not Active | Not Active | Not Active | Not Active | Not Active | Not Active | Not Active | Not Active | Ki [1]: Not Active; Ki [2]: Not Active; Ki (Adenosine receptor A1; cho): Not Active; Ki (Endothelin-1 receptor): Not Active; Ki [3]: Not Active; Ki ([4]; cho-k1): Not Active; Ki (Cathepsin G): Not Active; Ki ([5]; cho-k1): Not Active; Ki [6]: Not Active
